This is an account of results in ChEMBL document CHEMBL1795238, “Structure-brain exposure relationships in rat and human using a novel data set of unbound drug concentrations in brain interstitial and cerebrospinal fluids” (J Med Chem, 2009).

A short description of data set [1]: in vivo. Conditions: Sprague-Dawley, rat, iv, 2 (umol/kg)/hr.
Data set [2] is described as follows: in vivo. Conditions: Sprague-Dawley, rat, iv, 2 (umol/kg)/hr. This is another data set of the same source.
The nature of the next data set: clinical. Conditions: human, CSF and plasma.
The subject of data set [3] is Plasma. The note with it: rat, iv, 4 h.
Another data set deals with Brain. Conditions: rat, in vivo, iv, 4 h.
For data set [4] the following is noted: rat, brain, iv, 4 h.
The conditions of data set [5]: Sprague-Dawley, rat, iv, 2 (umol/kg)/hr, 4 h.
Another data set can be described thus: in vitro. Conditions: Sprague-Dawley, rat, plasma, iv, 2 (umol/kg)/hr.
Data set [6] deals with Plasma. The note with it: rat, iv, 4 h, BLD = below limit of detection.
Data set [7] in a line: in vivo. Conditions: Sprague-Dawley, rat, iv, 2 (umol/kg)/hr. The source holds these as a separate data set.
The test system of data set [8] is Plasma. The note with it: rat, iv, 4 h. The source holds these as a separate data set.

Each structure is given as a SMILES string.

Description for clinical: Unbound CSF to plasma concentration ratio in human

Turning to `Cc1c(O)cccc1C(=O)N[C@@H](CSc1ccccc1)[C@H](O)CN1C[C@H]2CCCC[C@H]2C[C@H]1C(=O)NC(C)(C)C`, the Kp uu at 4 h turned out to be 0.019 in “in vivo [1]” (brain and plasma); 0.067 in the data set “in vivo [2]” (CSF and plasma). In the data set “clinical”, the Kp uu is 0.045. Besides, in the data set with Plasma [3], the “Cp(f)” value was found to be 1.9 nM. Also, the Vdu with Brain is 860 mL. In data set [4], this compound gave a BPR of 0.04.

In turn, `CO/N=C(\C(=O)N[C@@H]1C(=O)N2C(C(=O)O)=C(COC(C)=O)CS[C@H]12)c1csc(N)n1` [CEFOTAXIME] registered a Kp uu at 4 h in “in vivo [2]” (csf) of 0.007. The same compound gave a Kp uu in the data set “clinical” of 0.17. Moreover, the “Cp(f)” value in the data set on Plasma [3] came to 2800 nM. The “K(p,uu,brain)” value in [5] was “ND(Unstable)”. Moreover, the Vdu entry in the data set with Brain is on record as “ND(Unstable)”. For the same compound, the fraction unbound at 4 h in the data set “in vitro” came out at 0.59. Besides, the BPR result in [4] (Sprague-Dawley, 2 (umol/kg)/hr) is recorded as “ND(Unstable)”.

For `Nc1nnc(-c2cccc(Cl)c2Cl)c(N)n1` [LAMOTRIGINE], the Kp uu at 4 h was found to be 0.88 in the data set “in vivo [1]” (brain) and 0.86 in the data set “in vivo [2]” (csf). The same compound yielded a Kp uu in “clinical” of 1.1. In the data set with Plasma [3], the “Cp(f)” value worked out at 1800 nM. The compound also showed a Vdu with Brain of 4.6 mL. The compound also registered a fraction unbound at 4 h in “in vitro” of 0.51. Further, the BPR in [4] (Sprague-Dawley, 2 (umol/kg)/hr) came to 2.02.

On to `CC(=O)O[C@H]1C(=O)[C@@]2(C)[C@H]([C@H](OC(=O)c3ccccc3)[C@]3(O)C[C@H](OC(=O)[C@H](O)[C@@H](NC(=O)c4ccccc4)c4ccccc4)C(C)=C1C3(C)C)[C@]1(OC(C)=O)CO[C@@H]1C[C@@H]2O` [PACLITAXEL], for which, in the data set with Plasma [6], the “K(p,uu,CSF)” value is on record as “BLD”. The Kp uu at 4 h in “in vivo [1]” (brain and plasma) was determined as 0.007. Further, the “Cp(f)” value in the data set with Plasma [3] was determined as 16 nM. In addition, the Kp at 4 h in the data set “in vivo [7]” (brain) worked out at 0.28. The same compound displayed a Vdu in the data set with Brain of 769 mL. Moreover, in the data set “in vitro”, the fraction unbound at 4 h was determined as 0.05.

Take `CC(C)NCC(O)COc1cccc2ccccc12` (stereo not drawn) [PROPRANOLOL]: the Kp uu at 4 h was 0.61 in the data set “in vivo [1]” (brain and plasma); 0.49 in the data set “in vivo [2]” (CSF and plasma). The Kp uu in the data set “clinical” is 0.42. In addition, the “Cp(f)” value with Plasma [3] was determined as 51 nM. The compound also gave a Kp at 4 h in “in vivo [7]” (brain and plasma) of 6.59. For the same compound, the Vdu in the data set on Brain amounted to 118 mL. The same compound showed a fraction unbound at 4 h in the data set “in vitro” of 0.09.

Take `O=C(O)c1ccccc1O` [SALICYLIC ACID]: the Kp uu at 4 h in “in vivo [1]” (brain) worked out at 0.19; in the data set “in vivo [2]” (csf) it was 0.16. The Kp uu in the data set “clinical” came to 0.19. The “Cp(f)” value with Plasma [3] was 5600 nM. In “in vivo [7]” (brain), this compound yielded a Kp at 4 h of 0.05. The same compound had a Vdu in the data set with Brain of 1 mL. This compound also returned a fraction unbound at 4 h in “in vitro” of 0.28.

As to `Nc1c2c(nc3ccccc13)CCCC2` [TACRINE], the Kp uu at 4 h came out at 0.78 in “in vivo [1]” (brain) and 0.67 in “in vivo [2]” (csf). In the data set “clinical”, this compound returned a Kp uu of 0.74. In addition, in the data set with Plasma [3], the “Cp(f)” value was determined as 120 nM. This compound came in with a Kp at 4 h in the data set “in vivo [7]” (brain) of 9.56. In the data set on Brain, this compound gave a Vdu of 22 mL. Besides, the fraction unbound at 4 h in “in vitro” stood at 0.55.

Take `CSc1ccc2c(c1)N(CCC1CCCCN1C)c1ccccc1S2` (stereo not drawn) [THIORIDAZINE]: the Kp uu at 4 h was determined as 0.45 in “in vivo [1]” (brain) and 0.21 in the data set “in vivo [2]” (csf). The Kp uu in “clinical” was 1.4. For the same compound, in the data set on Plasma [3], the “Cp(f)” value worked out at 1.3 nM. The same compound returned a Kp at 4 h in the data set “in vivo [7]” (brain) of 3.75. In the data set with Plasma [8], this compound had a Fu of 0.002. The compound further yielded a Vdu with Brain of 3333 mL.

In the case of `CC1(C)O[C@@H]2[C@@H](CO[C@@]3(COS(N)(=O)=O)OC(C)(C)O[C@@H]23)O1` [TOPIRAMATE], the Kp uu at 4 h in “in vivo [1]” (brain and plasma) was found to be 0.33; in “in vivo [2]” (CSF and plasma), 0.63. In addition, in the data set “clinical”, the Kp uu worked out at 1. The “Cp(f)” value in the data set on Plasma [3] came to 3400 nM. In addition, the Kp at 4 h in “in vivo [7]” (brain and plasma) stood at 0.84. For the same compound, the Vdu with Brain was determined as 3.2 mL. Further, in “in vitro”, the fraction unbound at 4 h stood at 0.79.

As to `COc1cccc(C2(O)CCCCC2CN(C)C)c1` (stereo not drawn) [TRAMADOL], the Kp uu at 4 h in “in vivo [1]” (brain) was determined as 1.46; in the data set “in vivo [2]” (csf), 0.71. The compound further gave a Kp uu in “clinical” of 1.44. Besides, in the data set on Plasma [3], the “Cp(f)” value stood at 300 nM. In “in vivo [7]” (brain), the Kp at 4 h is 5.29. The compound further gave a Vdu in the data set with Brain of 4.2 mL. Further, the fraction unbound at 4 h in the data set “in vitro” was 0.85.

The term fraction unbound denotes the share of the substance not bound to proteins or other matrix. A lower fraction unbound goes with extensive binding.
